Reference: PubChem BioAssay (NCI)
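Method: 48-hour compound exposure of cells in 96-well plates, five concentrations, linear interpolation of endpoints. Here, GI50 denotes the concentration required for 50% inhibition of growth. TGI marks complete inhibition of growth.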

Columns and labels:
Assay in all cases: growth of human tumour cells (NCI), 48 h
U251 CNS = tested on: U251 CNS
DU-145 prostate = tested on: DU-145 prostate
RXF 393 renal = tested on: RXF 393 renal
HCC-2998 colon = tested on: HCC-2998 colon
SK-MEL-28 melanoma = tested on: SK-MEL-28 melanoma
OVCAR-5 ovarian = tested on: OVCAR-5 ovarian
A549 NSCLC = tested on: A549 NSCLC
NCI-H460 lung = tested on: NCI-H460 lung
MCF7 breast = tested on: MCF7 breast
HCT-15 colon = tested on: HCT-15 colon
SK-MEL-5 melanoma = tested on: SK-MEL-5 melanoma
OVCAR-4 ovarian = tested on: OVCAR-4 ovarian
HOP-62 NSCLC = tested on: HOP-62 NSCLC
OVCAR-8 ovarian = tested on: OVCAR-8 ovarian
MDA-MB-435 = tested on: MDA-MB-435
SNB-75 CNS = tested on: SNB-75 CNS
OVCAR-3 ovarian = tested on: OVCAR-3 ovarian
IGROV1 ovarian = tested on: IGROV1 ovarian
UO-31 renal = tested on: UO-31 renal
A498 renal = tested on: A498 renal
NCI/ADR-RES ovarian = tested on: NCI/ADR-RES ovarian
LOX IMVI melanoma = tested on: LOX IMVI melanoma
SF-295 CNS = tested on: SF-295 CNS
SW-620 colon = tested on: SW-620 colon
HS 578T breast = tested on: HS 578T breast
RPMI-8226 leukemia = tested on: RPMI-8226 leukemia
SR leukemia = tested on: SR leukemia
SK-MEL-2 melanoma = tested on: SK-MEL-2 melanoma
T-47D breast = tested on: T-47D breast
SF-268 CNS = tested on: SF-268 CNS
786-0 renal = tested on: 786-0 renal
NCI-H226 lung = tested on: NCI-H226 lung
TK-10 renal = tested on: TK-10 renal
HCT-116 colon = tested on: HCT-116 colon
MALME-3M melanoma = tested on: MALME-3M melanoma
HOP-92 NSCLC = tested on: HOP-92 NSCLC
MDA-MB-231 breast = tested on: MDA-MB-231 breast
CAKI-1 renal = tested on: CAKI-1 renal
ACHN renal = tested on: ACHN renal
KM12 colon = tested on: KM12 colon
SN12C renal = tested on: SN12C renal
COLO 205 colon = tested on: COLO 205 colon
EKVX NSCLC = tested on: EKVX NSCLC
SNB-19 CNS = tested on: SNB-19 CNS
PC-3 prostate = tested on: PC-3 prostate
UACC-62 melanoma = tested on: UACC-62 melanoma
NCI-H522 lung = tested on: NCI-H522 lung
HT29 colon = tested on: HT29 colon
SF-539 CNS = tested on: SF-539 CNS
M14 melanoma = tested on: M14 melanoma
NCI-H23 lung = tested on: NCI-H23 lung
UACC-257 melanoma = tested on: UACC-257 melanoma
BT-549 breast = tested on: BT-549 breast

## O=C(Nc1nc2ccc(S(=O)(=O)Nc3ccc(C4(C(F)(F)F)CC4)cc3)cc2[nH]1)c1cnccn1
U251 CNS
  GI50: 4.74 µM
  TGI: 22.5 µM
DU-145 prostate
  GI50: 2.88 µM
  TGI: 13.2 µM
RXF 393 renal
  GI50: 1.12 µM
  TGI: 4.28 µM
HCC-2998 colon
  GI50: 3.61 µM
  TGI: 17.7 µM
SK-MEL-28 melanoma
  GI50: 4.58 µM
  TGI: 19.2 µM
OVCAR-5 ovarian
  GI50: 5.52 µM
  TGI: 19.5 µM
A549 NSCLC
  GI50: 2.88 µM
  TGI: 21.5 µM
NCI-H460 lung
  GI50: 1.07 µM
  TGI: 12.2 µM
MCF7 breast
  GI50: 0.551 µM
  TGI: 13.4 µM
HCT-15 colon
  GI50: 0.557 µM
  TGI: 14.3 µM
SK-MEL-5 melanoma
  GI50: 0.693 µM
  TGI: 4.3 µM
OVCAR-4 ovarian
  GI50: 4.61 µM
  TGI: 19.7 µM
HOP-62 NSCLC
  GI50: 3.85 µM
  TGI: 23 µM
OVCAR-8 ovarian
  GI50: 5.51 µM
  TGI: 31.8 µM
MDA-MB-435
  GI50: 0.33 µM
  TGI: 1.4 µM
SNB-75 CNS
  GI50: 1.53 µM
  TGI: 6.45 µM
OVCAR-3 ovarian
  GI50: 0.417 µM
  TGI: 10.1 µM
IGROV1 ovarian
  GI50: 1.9 µM
  TGI: 18.5 µM
UO-31 renal
  GI50: 3.02 µM
  TGI: 13.9 µM
A498 renal
  GI50: 2.26 µM
  TGI: 8.17 µM
NCI/ADR-RES ovarian
  GI50: 1.73 µM
  TGI: 11.8 µM
LOX IMVI melanoma
  GI50: 1.62 µM
  TGI: 20.1 µM
SF-295 CNS
  GI50: 0.506 µM
  TGI: 10.3 µM
SW-620 colon
  GI50: 1.71 µM
  TGI: 15.3 µM
HS 578T breast
  GI50: 2.57 µM
  TGI: 13.5 µM
RPMI-8226 leukemia
  GI50: 1.16 µM
  TGI: 5.39 µM
SR leukemia
  GI50: 0.359 µM
  TGI: 2.96 µM
SK-MEL-2 melanoma
  GI50: 3.03 µM
  TGI: 18.5 µM
T-47D breast
  GI50: 3.8 µM
  TGI: 23.9 µM
SF-268 CNS
  GI50: 4.21 µM
  TGI: 20.6 µM
786-0 renal
  GI50: 2.77 µM
  TGI: 12.6 µM
NCI-H226 lung
  GI50: 2.08 µM
  TGI: 9.51 µM
TK-10 renal
  GI50: 8.16 µM
  TGI: 22.5 µM
HCT-116 colon
  GI50: 1.66 µM
  TGI: 15.9 µM
MALME-3M melanoma
  GI50: 1.66 µM
  TGI: 15.5 µM
HOP-92 NSCLC
  GI50: 1.04 µM
  TGI: 2.4 µM
MDA-MB-231 breast
  GI50: 5.32 µM
  TGI: 19.4 µM
CAKI-1 renal
  GI50: 4.19 µM
  TGI: 16.2 µM
ACHN renal
  GI50: 4.39 µM
  TGI: 18.2 µM
KM12 colon
  GI50: 1.03 µM
  TGI: 14.4 µM
SN12C renal
  GI50: 4.46 µM
  TGI: 17.6 µM
COLO 205 colon
  GI50: 2.84 µM
  TGI: 17.5 µM
EKVX NSCLC
  GI50: 3.04 µM
  TGI: 15 µM
SNB-19 CNS
  GI50: 4.24 µM
  TGI: 22 µM
PC-3 prostate
  GI50: 1.06 µM
  TGI: 2.47 µM
UACC-62 melanoma
  GI50: 1.51 µM
  TGI: 15.4 µM
NCI-H522 lung
  GI50: 1.07 µM
  TGI: 14.4 µM
HT29 colon
  GI50: 1.2 µM
  TGI: 14.4 µM
SF-539 CNS
  GI50: 2.35 µM
  TGI: 10.4 µM
M14 melanoma
  GI50: 1.12 µM
  TGI: 11.1 µM
NCI-H23 lung
  GI50: 2.2 µM
  TGI: 15.8 µM
UACC-257 melanoma
  GI50: 10.6 µM
  TGI: 23.8 µM
BT-549 breast
  GI50: 1.91 µM
  TGI: 16.1 µM
